Experimental data from the Kinase Knowledgebase extract (Sharma et al. 2016).

Molecular target: PIK3CG (human) (UniProt P48736)
Assay: Assessment of PIK3CG Kinase Activity

PIK3CG (human), sequence (P48736 whole entry, looked up): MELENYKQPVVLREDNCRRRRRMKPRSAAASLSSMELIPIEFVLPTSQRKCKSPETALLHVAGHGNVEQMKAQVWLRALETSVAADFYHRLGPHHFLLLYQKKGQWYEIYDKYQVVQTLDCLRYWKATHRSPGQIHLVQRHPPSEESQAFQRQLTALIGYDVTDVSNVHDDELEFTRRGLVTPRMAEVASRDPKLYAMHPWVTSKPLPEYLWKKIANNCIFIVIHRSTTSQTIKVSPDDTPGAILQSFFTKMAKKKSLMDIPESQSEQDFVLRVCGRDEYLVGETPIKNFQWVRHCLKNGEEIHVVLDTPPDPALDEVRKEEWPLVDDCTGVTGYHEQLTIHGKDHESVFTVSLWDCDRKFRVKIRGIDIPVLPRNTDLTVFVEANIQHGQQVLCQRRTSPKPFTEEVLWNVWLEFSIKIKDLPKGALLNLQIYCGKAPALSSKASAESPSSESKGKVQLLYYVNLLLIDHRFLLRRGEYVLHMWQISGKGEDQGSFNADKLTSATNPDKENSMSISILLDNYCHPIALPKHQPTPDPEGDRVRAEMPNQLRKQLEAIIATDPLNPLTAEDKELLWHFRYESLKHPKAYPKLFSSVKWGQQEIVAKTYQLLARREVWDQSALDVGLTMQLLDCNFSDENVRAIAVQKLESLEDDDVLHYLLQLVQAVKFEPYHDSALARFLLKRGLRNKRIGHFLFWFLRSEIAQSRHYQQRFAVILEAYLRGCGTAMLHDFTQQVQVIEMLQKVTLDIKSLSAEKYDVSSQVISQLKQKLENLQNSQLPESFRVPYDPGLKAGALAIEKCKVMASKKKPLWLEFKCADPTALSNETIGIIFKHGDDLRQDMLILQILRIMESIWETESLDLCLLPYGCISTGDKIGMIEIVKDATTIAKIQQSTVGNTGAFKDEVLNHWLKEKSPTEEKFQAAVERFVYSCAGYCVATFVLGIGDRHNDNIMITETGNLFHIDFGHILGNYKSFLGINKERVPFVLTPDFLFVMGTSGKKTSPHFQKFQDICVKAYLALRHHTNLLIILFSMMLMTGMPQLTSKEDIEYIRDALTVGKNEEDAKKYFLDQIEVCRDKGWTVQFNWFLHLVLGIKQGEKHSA

| SMILES | IC50 [nM] |
| --- | --- |
| CN(C)c1cccc(CNC(=O)Nc2nc3c(s2)-c2c(c(C4CC4)nn2-c2ccccc2Cl)CC3)c1 | < 800 |
| O=C(NCCc1ccccn1)Nc1nc2c(s1)-c1c(c(-c3cccnc3)nn1-c1ccccc1Cl)CC2 | < 800 |
| Cn1cc(CCNC(=O)Nc2nc3c(s2)-c2c(c(-c4cccnc4)nn2-c2ccccc2Cl)CC3)cn1 | < 800 |
| CC(C)(C)OC(=O)N1CCC[C@@H]1CNC(=O)Nc1nc2c(s1)-c1c(c(-c3ccccc3)nn1-c1ccccc1Cl)CC2 | < 800 |
| N[C@@H]1CC[C@@H](NC(=O)Nc2nc3c(s2)-c2c(c(-c4ccccc4)nn2-c2ccccc2Cl)CC3)C1 | < 800 |
| CC(C)(C)OC(=O)N1CC[C@H](CNC(=O)Nc2nc3c(s2)-c2c(c(-c4cncnc4)nn2-c2ccccc2Cl)CC3)C1 | < 800 |
| CC(C)(C)OC(=O)NCc1ccccc1NC(=O)Nc1nc2c(s1)-c1c(c(-c3cccnc3)nn1-c1ccccc1Cl)CC2 | < 800 |
| COc1cccc(CCNC(=O)Nc2nc3c(s2)-c2c(c(-c4cncnc4)nn2-c2ccccc2Cl)CC3)c1OC | < 800 |
| CN1CCC(n2nc(-c3cccnc3)c3c2-c2sc(NC(=O)NCC(=O)N(C)C)nc2CC3)CC1 | < 800 |
| Cn1ccnc1CNC(=O)Nc1nc2c(s1)-c1c(c(-c3cccnc3)nn1-c1ccccc1Cl)CC2 | < 800 |
| O=C(NC[C@@H]1CCCN1)Nc1nc2c(s1)-c1c(c(-c3cncnc3)nn1-c1ccccc1Cl)CC2 | < 800 |
| CCn1cnc(CCNC(=O)Nc2nc3c(s2)-c2c(c(-c4ccccc4)nn2-c2cccc(Cl)c2)CC3)c1 | < 800 |
| CC(=O)N(C)c1cccc(CNC(=O)Nc2nc3c(s2)-c2c(c(-c4cccnc4)nn2-c2ccccc2Cl)CC3)c1 | < 800 |
| O=C(NCCC(=O)N1CCCCC1)Nc1nc2c(s1)-c1c(c(-c3cncnc3)nn1-c1ccccc1Cl)CC2 | < 800 |
| CC(C)(CNc1ncccn1)NC(=O)Nc1nc2c(s1)-c1c(c(-c3cccnc3)nn1-c1ccccc1Cl)CC2 | < 800 |
| CN1CCC(n2nc(-c3cccnc3)c3c2-c2sc(NC(=O)NCc4cccc(N5CCNC5=O)c4)nc2CC3)CC1 | < 800 |
| O=C(NCCc1nc(C2CC2)no1)Nc1nc2c(s1)-c1c(c(-c3cccnc3)nn1-c1ccccc1Cl)CC2 | < 800 |
| CC(C)(C)OC(=O)N[C@H]1CC[C@H](CNC(=O)Nc2nc3c(s2)-c2c(c(-c4cccnc4)nn2-c2ccccc2Cl)CC3)CC1 | < 800 |
| CC(=O)Nc1cccc(CNC(=O)Nc2nc3c(s2)-c2c(c(-c4cncnc4)nn2-c2ccccc2Cl)CC3)c1 | < 800 |
| O=C(NCc1ccc(N2CCNC2=O)cc1)Nc1nc2c(s1)-c1c(c(-c3ccccc3)nn1-c1cccc(Cl)c1)CC2 | < 800 |

| SMILES | IC50 [nM] |
| --- | --- |
| CC(=O)Nc1ccc(S(=O)(=O)NCCNC(=O)Nc2nc3c(s2)-c2c(c(-c4ccccc4)nn2-c2ccccc2Cl)CC3)cc1 | < 800 |
| CC(C)(C)OC(=O)N1CCC[C@@H]1CNC(=O)Nc1nc2c(s1)-c1c(c(-c3cncnc3)nn1-c1ccccc1Cl)CC2 | < 800 |
| O=C(Nc1nc2c(s1)-c1c(c(-c3cccnc3)nn1-c1ccccc1Cl)CC2)N1CCC2(CC1)C(=O)NCN2c1ccccc1 | < 800 |
| CC(C)(C)OC(=O)CCNC(=O)Nc1nc2c(s1)-c1c(c(-c3cccnc3)nn1C1CCN(C3CCCC3)CC1)CC2 | < 800 |
| O=C(NCc1cccc(N2CCNC2=O)c1)Nc1nc2c(s1)-c1c(c(-c3cncnc3)nn1-c1ccccc1Cl)CC2 | < 800 |
| CN(C)c1cccc(CNC(=O)Nc2nc3c(s2)-c2c(c(-c4cccnc4)nn2-c2ccccc2Cl)CC3)c1 | < 800 |
| C[C@@H](C(=O)N1CC[C@H](CNC(=O)Nc2nc3c(s2)-c2c(c(-c4cncnc4)nn2-c2ccccc2Cl)CC3)C1)N(C)C(=O)OC(C)(C)C | < 800 |
| O=C(NCCc1nc(C2CC2)no1)Nc1nc2c(s1)-c1c(c(-c3cncnc3)nn1-c1ccccc1Cl)CC2 | < 800 |
| O=C(NCCN1CCOCC1)Nc1nc2c(s1)-c1c(c(-c3cccnc3)nn1-c1ccccc1Cl)CC2 | < 800 |
| CC(C)COC(=O)N1CCC[C@@H]1CNC(=O)Nc1nc2c(s1)-c1c(c(-c3cncnc3)nn1-c1ccccc1Cl)CC2 | < 800 |
| CC(C)(C)OC(=O)N1CCC[C@H]1CNC(=O)Nc1nc2c(s1)-c1c(c(-c3cncnc3)nn1-c1ccccc1Cl)CC2 | < 800 |
| CS(=O)(=O)c1ccc(CNC(=O)Nc2nc3c(s2)-c2c(c(-c4cncnc4)nn2-c2ccccc2Cl)CC3)cc1 | < 800 |
| O=C(NCCc1ccncc1)Nc1nc2c(s1)-c1c(c(-c3cccnc3)nn1-c1ccccc1Cl)CC2 | < 800 |
| CN1CCN(C(=O)CCNC(=O)Nc2nc3c(s2)-c2c(c(-c4ccccc4)nn2-c2ccccc2Cl)CC3)CC1 | < 800 |
| CC(=O)NCC1CCCN(C(=O)Nc2nc3c(s2)-c2c(c(-c4cccnc4)nn2-c2ccccc2Cl)CC3)C1 (centres undefined) | < 800 |
| CCn1cnc(CCNC(=O)Nc2nc3c(s2)-c2c(c(-c4cccnc4)nn2C2CCN(C)CC2)CC3)c1 | < 800 |
| CC(C)(C)OC(=O)CCNC(=O)Nc1nc2c(s1)-c1c(c(Nc3ccccn3)nn1-c1ccccc1)CC2 | < 800 |
| NS(=O)(=O)c1ccc(-n2nc(-c3cccnc3)c3c2-c2sc(NC(=O)NCc4cccc(N5CCNC5=O)c4)nc2CC3)c(Cl)c1 | < 800 |
| CCc1csc(CCNC(=O)Nc2nc3c(s2)-c2c(c(-c4ccccc4)nn2-c2cccc(Cl)c2)CC3)n1 | < 800 |
